Source: patent US20110065760A1, “COMPOUNDS FOR THE INHIBITION OF ROTAMASES AND USE THEREOF” (Jerini AG, priority 2002, published 2011)

Legend:
[1] = WST-1 cytotoxicity assay, HeLa; assay type: cell-based; conditions: human, HeLa cells (cervix carcinoma); WST-1, 48 h incubation; read-out: EC50 class, cytotoxic effect, CL-2 (HeLa)
Procedure: (§1) For this cytotoxic evaluation of the compounds the commercial available WST-1 assay (Roche) was used according to the manufacturer's instructions. The assay is based on the cleavage of the tetrazolium salt WST-1 by mitochondrial dehydrogenases found in viable cells. In general compounds were added to cells cultured in 96-well plates at 37° C. After 48 h of incubation 10 μl of WST-1 solution was added. The formazan dye was analyzed with an ELISA plate reader at (450 vs. 620) nm. CL-1: human acute myeloid leukemia, HL-60 CL-2: human cervix carcinoma, HeLa CL-3: human prostate carcinoma, PC-3 CL-4: human colon adenocarcinoma, Caco-2 CL-5: human breast adenocarcinoma, MCF-7

EcParvulin = EcParvulin (Escherichia coli, UniProt P0A9L5); test: protease-coupled PPIase assay, EcParvulin; assay type: biochemical; conditions: 20 nM EcParvulin, substrate Suc-Ala-Phe-Pro-Phe-pNA, chymotrypsin, pH 7.8, 6° C.; read-out: IC50 class, Target T-5 (EcParv)
hPin1 = hPin1 (Homo sapiens, UniProt Q13526); test: protease-coupled PPIase assay, hPin1; assay type: biochemical; conditions: 6 nM hPin1, substrate Ac-Ala-Ala-Ser(PO3H2)-Pro-Arg-pNA, trypsin, pH 7.8, 6° C.; read-out: IC50 class, Target T-1 (hPin1)
[2] = WST-1 cytotoxicity assay, PC-3; assay type: cell-based; conditions: human, PC-3 cells (prostate carcinoma); WST-1, 48 h incubation; read-out: EC50 class, cytotoxic effect, CL-3 (PC-3)
Procedure: as §1

hCyp18 = hCyp18 (Homo sapiens, UniProt P62937); test: protease-coupled PPIase assay, hCyp18; assay type: biochemical; conditions: 10 nM hCyp18, substrate Suc-Ala-Phe-Pro-Phe-pNA, chymotrypsin, pH 7.8, 6° C.; read-out: IC50 class, Target T-3 (hCyp18)
LpCyp18 = LpCyp18 (Legionella pneumophila, UniProt Q5ZRZ4); test: biochemical; conditions: IC50 class, Target T-4 (LpCyp18)
hFKBP12 = hFKBP12 (Homo sapiens, UniProt P62942); test: protease-coupled PPIase assay, hFKBP12; assay type: biochemical; conditions: 20 nM hFKBP12, substrate Suc-Ala-Phe-Pro-Phe-pNA, chymotrypsin, pH 7.8, 6° C.; read-out: IC50 class, Target T-2 (hFKBP12)
[3] = WST-1 cytotoxicity assay, HL-60; assay type: cell-based; conditions: human, HL-60 cells (acute myeloid leukemia); WST-1, 48 h incubation; read-out: EC50 class, cytotoxic effect, CL-1 (HL-60)
Procedure: as §1

[4] = WST-1 cytotoxicity assay, MCF-7; assay type: cell-based; conditions: human, MCF-7 cells (breast adenocarcinoma); WST-1, 48 h incubation; read-out: EC50 class, cytotoxic effect, CL-5 (MCF-7)
Procedure: as §1

[5] = test system: tumor cell lines (HL-60, HeLa, PC-3, Caco-2, MCF-7); test: WST-1 cytotoxicity assay, tumor cell lines (panel statement); assay type: cell-based, human; conditions: WST-1, 48 h; table 4
Procedure: as §1

Chain of hPin1 (Q13526 whole entry): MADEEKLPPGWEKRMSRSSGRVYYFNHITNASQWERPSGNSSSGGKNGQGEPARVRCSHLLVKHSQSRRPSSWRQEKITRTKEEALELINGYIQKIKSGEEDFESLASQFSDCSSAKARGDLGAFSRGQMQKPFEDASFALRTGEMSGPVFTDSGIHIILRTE
Chain of hFKBP12 (P62942 whole entry): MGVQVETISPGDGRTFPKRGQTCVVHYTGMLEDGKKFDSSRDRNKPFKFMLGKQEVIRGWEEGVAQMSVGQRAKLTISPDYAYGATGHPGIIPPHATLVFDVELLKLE
Chain of hCyp18 (P62937 whole entry): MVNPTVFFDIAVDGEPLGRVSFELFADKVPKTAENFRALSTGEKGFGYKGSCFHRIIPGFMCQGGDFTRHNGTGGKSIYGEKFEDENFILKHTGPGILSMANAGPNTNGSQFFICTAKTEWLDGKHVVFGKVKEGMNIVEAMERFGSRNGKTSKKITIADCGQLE
Chain of LpCyp18 (Q5ZRZ4 1-164): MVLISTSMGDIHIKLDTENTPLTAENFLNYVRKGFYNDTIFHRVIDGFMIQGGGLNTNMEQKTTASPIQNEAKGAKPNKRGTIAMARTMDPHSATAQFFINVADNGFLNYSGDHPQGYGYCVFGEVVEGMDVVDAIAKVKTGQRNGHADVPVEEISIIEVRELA
Chain of EcParvulin (P0A9L5 whole entry): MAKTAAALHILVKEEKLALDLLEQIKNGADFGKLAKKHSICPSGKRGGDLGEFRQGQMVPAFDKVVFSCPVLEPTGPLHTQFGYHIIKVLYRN

| SMILES | EC50 at 48 h [1] [µM] | EC50 at 48 h [2] [µM] | EC50 at 48 h [3] [µM] | EC50 at 48 h [4] [µM] | also measured |
| --- | --- | --- | --- | --- | --- |
| CC(C)(C)c1ccc(Oc2cccc(CNc3cc(Cl)cc(Cl)c3O)c2)cc1 [Compound 483] | 10 to 50 | 10 to 50 | – | – | IC50 (EcParvulin): 50 to 100 µM; IC50 (hPin1): 1 to 10 µM; IC50 (hCyp18): 10 to 50 µM; IC50 (LpCyp18): > 100 µM; IC50 (hFKBP12): > 100 µM |
| Oc1c(NCc2ccccc2Sc2ccccc2Cl)ccc(F)c1F [Compound 402] | 10 to 50 | 10 to 50 | 10 to 50 | – | – |
| CC(C)(C)NC(=S)Nc1cc(-c2nc3ccccc3s2)cc(Cl)c1O [Compound 640] | – | – | 10 to 50 | 10 to 50 | IC50 (hPin1): 1 to 10 µM |
| Oc1c(Cl)cc(Cl)cc1NCc1ccccc1Sc1ccccc1Cl [Compound 332] | 10 to 50 | 10 to 50 | 10 to 50 | – | – |
| O=C(NCCc1ccccc1)Nc1cc(Cl)c(O)c(NCc2ccccc2Sc2ccc(Cl)cc2)c1 [Compound 632] | – | 10 to 50 | < 10 | – | – |
| CC(C)(C)CC(C)(C)NC(=O)Nc1cccc(Cl)c1O [Compound 54] | – | – | 10 to 50 | < 10 | – |
| COc1ccc(Oc2cccc(CNc3cc(Cl)cc(Cl)c3O)c2)cc1 [Compound 493] | < 10 | < 10 | 10 to 50 | – | – |
| Cc1c(Cl)cc(NC(=S)NCc2ccccc2)c(O)c1Cl [Compound 254] | 10 to 50 | 10 to 50 | 10 to 50 | 10 to 50 | IC50 (hPin1): < 1 µM |
| CC(O)c1cc(Cl)cc(NCc2ccccc2Sc2ccc(Cl)cc2)c1O (stereo not drawn) [Compound 413] | < 10 | 10 to 50 | 10 to 50 | – | – |
| Oc1c(NCc2ccccc2Sc2cccc(Cl)c2)ccc(F)c1F [Compound 403] | < 10 | < 10 | 10 to 50 | – | – |
| Oc1c(Cl)cc(-c2nc3ccccc3s2)cc1NC(=S)NC1CCCC1 [Compound 653] | – | – | < 10 | 10 to 50 | – |
| O=C(Nc1cc(Cl)nc(Cl)c1)Nc1cc(Cl)c(O)c(NCc2ccccc2Sc2ccc(Cl)cc2)c1 [Compound 652] | – | < 10 | < 10 | – | cytotoxic effect on the tumor cell lines tested [5]: particular relevance |
| Oc1c(Cl)cc(Cl)cc1NC(=S)Nc1ccccc1C(F)(F)F [Compound 221] | – | – | 10 to 50 | 10 to 50 | – |
| Oc1c(F)cccc1NCc1ccccc1Sc1ccc(Cl)cc1 [Compound 357] | < 10 | < 10 | < 10 | – | cytotoxic effect on the tumor cell lines tested [5]: particular relevance |
| O=C(Nc1cc(Cl)c(O)c(NCc2ccccc2Sc2ccc(Cl)cc2)c1)N1CCOCC1 [Compound 654] | 10 to 50 | – | – | < 10 | – |
| O=C(Nc1ccc(Cl)cc1)Nc1cc(Cl)c(O)c(NCc2ccccc2Sc2ccc(Cl)cc2)c1 [Compound 633] | – | < 10 | < 10 | – | cytotoxic effect on the tumor cell lines tested [5]: particular relevance |
| CC(C)(C)CC(C)(C)NC(=O)Nc1cc(Cl)ccc1O [Compound 6] | – | – | 10 to 50 | < 10 | – |
| CC(C)(C)CC(C)(C)NC(=O)Nc1ccc(F)c(F)c1O [Compound 150] | – | – | 10 to 50 | < 10 | – |
| Oc1c(Cl)cc(Cl)cc1NCc1ccccc1Sc1ccc(Cl)cc1 [Compound 329] | 10 to 50 | 10 to 50 | 10 to 50 | 10 to 50 | – |
| Oc1ccccc1NCc1ccccc1Sc1ccc(Cl)cc1 [Compound 630] | < 10 | < 10 | 10 to 50 | – | – |
| Oc1c(Cl)cc(Cl)cc1NCc1cccc(OCc2ccccc2)c1 [Compound 484] | < 10 | < 10 | 10 to 50 | – | – |
| O=C(NCc1ccccc1)Nc1cc(Cl)c(O)c(NCc2ccccc2Sc2ccc(Cl)cc2)c1 [Compound 631] | – | 10 to 50 | < 10 | – | – |
